Results from patent publication US11098055B2, “Ester ACC inhibitors and uses thereof” (Gilead Apollo, LLC, priority 2015, dated 2021).
Converted amounts (≈) assume the structure as drawn.

What was measured:
hACC2 = hACC2 (Homo sapiens, UniProt O00763); experiment: In vitro ACC2 inhibition assay (ADP-Glo), human ACC2; format: biochemical; conditions: Table 2b (additional results)
Procedure, shortened: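 ADP-Glo luminescent ADP detection with 5 nM ACC2, 20 μM ATP, 20 μM acetyl-CoA, 12 mM NaHCO3, 2 mM DTT, 5% DMSO; compound (30 μM-0.00051 μM, 11 points) preincubated 15 min, reaction 60 min at room temperature. Percent inhibition against DMSO and positive controls; IC50 by four-parameter nonlinear fit.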

Botrtyis cinerea (Bc) = experiment: Growth inhibition assay of fungal pathogens; format: cell-based; conditions: 48 h, Table 4b, read-out: Concentration at 90% Inhibition Bc
Procedure, shortened: (§1)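 Read-out was OD600 with visual scoring at 48 h, expressed as percent inhibition relative to wells containing 2% DMSO alone. Test wells held spores in 17% V8 liquid medium, with compound at final levels of either 50, 10, 2 ppm or 2, 0.4, 0.08 ppm.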

[1] = tested on: Collectotrichum graminicola (Cg); experiment: Growth inhibition assay of fungal pathogens; format: cell-based; conditions: 48 h, Table 4b, read-out: Concentration at 90% Inhibition Cg
Procedure, shortened: as §1

Diplodia maydis (Dm) = experiment: Growth inhibition assay of fungal pathogens; format: cell-based; conditions: Stenocarpella maydis, 48 h, Table 4b, read-out: Concentration at 90% Inhibition Dm
Procedure, shortened: as §1

[2] = tested on: Fusarium moniliforme (Fm); experiment: Growth inhibition assay of fungal pathogens; format: cell-based; conditions: Fusarium verticillioides, 48 h, Table 4b, read-out: Concentration at 90% Inhibition Fm
Procedure, shortened: as §1

[3] = tested on: Fusarium virguliforme (Fv); experiment: Growth inhibition assay of fungal pathogens; format: cell-based; conditions: 48 h, Table 4b, read-out: Concentration at 90% Inhibition Fv
Procedure, shortened: as §1

[4] = tested on: Phytophthora capsici (Pc); experiment: Growth inhibition assay of fungal pathogens; format: cell-based; conditions: 48 h, Table 4b, read-out: Concentration at 90% Inhibition Pc
Procedure, shortened: as §1

Rhizoctonia solani (Rs) = experiment: Growth inhibition assay of fungal pathogens; format: cell-based; conditions: 48 h, Table 4b, read-out: Concentration at 90% Inhibition Rs
Procedure, shortened: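 Spores, or mycelial plugs for Rhizoctonia, in 17% V8 medium (¼ PDB for plugs) were exposed to compound at final 50, 10 and 2 ppm or 2, 0.4 and 0.08 ppm, with 2% DMSO. Growth was read by OD600 with blank subtraction plus visual rating; percent inhibition at 48 h is relative to 2% DMSO control.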

Septoria tritici (St) = experiment: Growth inhibition assay of fungal pathogens; format: cell-based; conditions: Zymoseptoria tritici, 48 h, Table 4b, read-out: Concentration at 90% Inhibition St
Procedure, shortened: as §1

hACC2, sequence (O00763 whole entry): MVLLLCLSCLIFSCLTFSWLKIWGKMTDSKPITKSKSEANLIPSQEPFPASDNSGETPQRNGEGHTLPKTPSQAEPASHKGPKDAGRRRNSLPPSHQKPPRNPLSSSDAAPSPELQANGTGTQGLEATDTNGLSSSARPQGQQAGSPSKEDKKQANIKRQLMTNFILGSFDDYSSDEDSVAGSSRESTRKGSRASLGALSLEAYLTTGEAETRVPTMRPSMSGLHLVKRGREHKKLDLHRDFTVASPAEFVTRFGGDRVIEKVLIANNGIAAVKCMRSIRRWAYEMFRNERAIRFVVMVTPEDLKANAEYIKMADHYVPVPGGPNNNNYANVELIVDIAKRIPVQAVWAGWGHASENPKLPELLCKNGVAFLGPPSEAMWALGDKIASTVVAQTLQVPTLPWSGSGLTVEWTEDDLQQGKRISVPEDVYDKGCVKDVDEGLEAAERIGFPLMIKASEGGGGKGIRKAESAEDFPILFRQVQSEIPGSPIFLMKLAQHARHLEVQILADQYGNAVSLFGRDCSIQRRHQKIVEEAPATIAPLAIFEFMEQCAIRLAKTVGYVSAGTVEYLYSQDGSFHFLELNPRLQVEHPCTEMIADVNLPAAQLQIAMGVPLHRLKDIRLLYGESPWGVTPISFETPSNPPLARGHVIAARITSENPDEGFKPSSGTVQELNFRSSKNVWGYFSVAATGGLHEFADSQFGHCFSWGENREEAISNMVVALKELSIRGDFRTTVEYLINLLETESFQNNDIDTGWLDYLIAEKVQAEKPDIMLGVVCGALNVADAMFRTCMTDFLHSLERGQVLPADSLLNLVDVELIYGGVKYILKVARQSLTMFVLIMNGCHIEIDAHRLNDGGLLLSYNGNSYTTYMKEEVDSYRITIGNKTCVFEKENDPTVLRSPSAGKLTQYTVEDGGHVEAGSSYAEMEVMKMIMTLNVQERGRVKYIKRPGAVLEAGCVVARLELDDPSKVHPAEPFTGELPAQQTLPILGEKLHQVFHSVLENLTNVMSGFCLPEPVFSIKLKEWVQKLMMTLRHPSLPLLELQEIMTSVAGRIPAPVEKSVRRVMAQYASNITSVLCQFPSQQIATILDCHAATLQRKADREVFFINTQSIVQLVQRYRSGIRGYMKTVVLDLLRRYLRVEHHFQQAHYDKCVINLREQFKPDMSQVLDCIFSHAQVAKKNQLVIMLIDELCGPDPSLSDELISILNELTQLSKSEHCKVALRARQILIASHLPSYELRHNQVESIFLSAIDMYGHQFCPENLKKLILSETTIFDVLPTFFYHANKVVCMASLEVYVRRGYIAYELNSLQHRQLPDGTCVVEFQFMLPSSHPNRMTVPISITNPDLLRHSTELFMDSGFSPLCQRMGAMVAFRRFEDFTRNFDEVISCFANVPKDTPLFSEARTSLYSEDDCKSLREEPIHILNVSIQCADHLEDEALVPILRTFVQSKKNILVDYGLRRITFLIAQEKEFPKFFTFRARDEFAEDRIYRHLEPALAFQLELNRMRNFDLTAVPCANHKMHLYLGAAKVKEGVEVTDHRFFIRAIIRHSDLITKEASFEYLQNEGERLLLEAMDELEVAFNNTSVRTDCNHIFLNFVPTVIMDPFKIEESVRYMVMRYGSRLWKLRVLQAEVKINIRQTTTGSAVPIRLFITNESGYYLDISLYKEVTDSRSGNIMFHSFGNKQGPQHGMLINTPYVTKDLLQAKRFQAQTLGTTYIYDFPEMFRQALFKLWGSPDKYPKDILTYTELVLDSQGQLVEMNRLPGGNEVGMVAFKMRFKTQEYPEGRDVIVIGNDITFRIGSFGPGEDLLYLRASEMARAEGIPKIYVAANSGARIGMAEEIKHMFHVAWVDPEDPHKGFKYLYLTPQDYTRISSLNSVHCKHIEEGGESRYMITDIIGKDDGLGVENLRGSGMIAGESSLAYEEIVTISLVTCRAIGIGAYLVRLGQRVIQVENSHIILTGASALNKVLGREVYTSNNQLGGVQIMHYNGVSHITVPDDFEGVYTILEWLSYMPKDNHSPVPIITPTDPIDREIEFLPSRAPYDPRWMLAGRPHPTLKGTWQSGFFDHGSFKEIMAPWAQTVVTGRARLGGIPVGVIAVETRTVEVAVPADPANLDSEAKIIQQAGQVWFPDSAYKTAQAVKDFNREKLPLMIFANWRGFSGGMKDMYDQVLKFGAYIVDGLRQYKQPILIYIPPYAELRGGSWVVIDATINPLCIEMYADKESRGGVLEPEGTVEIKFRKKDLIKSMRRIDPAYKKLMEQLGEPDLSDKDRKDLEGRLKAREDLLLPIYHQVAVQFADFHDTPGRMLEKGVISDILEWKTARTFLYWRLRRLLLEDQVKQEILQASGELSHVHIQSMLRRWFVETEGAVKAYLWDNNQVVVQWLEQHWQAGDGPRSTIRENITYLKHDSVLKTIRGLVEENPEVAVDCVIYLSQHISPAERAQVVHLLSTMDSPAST

Row | Structure (SMILES) | IC50 (hACC2) | IC90 (Botrtyis cinerea (Bc)) | IC90 [1] | IC90 (Diplodia maydis (Dm)) | IC90 [2] | IC90 [3] | IC90 [4] | IC90 (Rhizoctonia solani (Rs)) | IC90 (Septoria tritici (St))
1 | CCOC(=O)c1sc2c(c1C)c(=O)n(C(C)(C)C(=O)NC(C)C)c(=O)n2C[C@H](OCC(C)(C)C#N)c1cc(F)ccc1OC [Compound I-37, ethyl (R)-1-(2-(2-cyano-2-methylpropoxy)-2-(5-fluoro-2-methoxyphenyl)ethyl)-3-(1-(isopropylamino)-2-methyl-1-oxopropan-2-yl)-5-methyl-2,4-dioxo-1,2,3,4-tetrahydrothieno[2,3-d]pyrimidine-6-carboxylate] | 10 to 40 nM | 0.4 µg/mL (≈ 0.634 µM) | 0.4 µg/mL (≈ 0.634 µM) | 0.4 µg/mL (≈ 0.634 µM) | 0.08 µg/mL (≈ 0.127 µM) | 0.4 µg/mL (≈ 0.634 µM) | ≥ 50 µg/mL | 2 µg/mL (≈ 3.17 µM) | ≥ 50 µg/mL
2 | CCOC(=O)c1sc2c(c1C)c(=O)n(C(C)(C)C(=O)NC(C)C)c(=O)n2C[C@H](OCC#N)c1cc(F)ccc1OC [Compound I-33, ethyl (R)-1-(2-(cyanomethoxy)-2-(5-fluoro-2-methoxy-phenyl)ethyl)-3-(1-(isopropylamino)-2-methyl-1-oxopropan-2-yl)-5-methyl-2,4-dioxo-1,2,3,4-tetrahydrothieno[2,3-d]pyrimidine-6-carboxylate] | 3 to 10 nM | 0.4 µg/mL (≈ 0.68 µM) | 2 µg/mL (≈ 3.4 µM) | 2 µg/mL (≈ 3.4 µM) | 0.08 µg/mL (≈ 0.136 µM) | 0.4 µg/mL (≈ 0.68 µM) | ≥ 50 µg/mL | 0.4 µg/mL (≈ 0.68 µM) | 10 µg/mL (≈ 17 µM)
3 | CCOC(=O)c1sc2c(c1C)c(=O)n(C(C)(C)C(=O)NC(C)C)c(=O)n2C[C@H](OCCS(C)(=O)=O)c1cc(F)ccc1OC [Compound I-36, ethyl (R)-1-(2-(5-fluoro-2-methoxyphenyl)-2-(2-(methylsulfonyl)ethoxy)ethyl)-3-(1-(isopropylamino)-2-methyl-1-oxopropan-2-yl)-5-methyl-2,4-dioxo-1,2,3,4-tetrahydrothieno[2,3-d]pyrimidine-6-carboxylate] | 10 to 40 nM | 2 µg/mL (≈ 3.05 µM) | 0.4 µg/mL (≈ 0.61 µM) | 2 µg/mL (≈ 3.05 µM) | 0.4 µg/mL (≈ 0.61 µM) | 2 µg/mL (≈ 3.05 µM) | ≥ 50 µg/mL | 0.4 µg/mL (≈ 0.61 µM) | ≥ 50 µg/mL
4 | CCOC(=O)c1sc2c(c1C)c(=O)n([C@H](C)C(=O)NC(C)C)c(=O)n2C[C@H](O)c1cc(F)ccc1OC [Compound I-43, ethyl 1-((R)-2-(5-fluoro-2-methoxyphenyl)-2-hydroxyethyl)-3-((R)-1-(isopropylamino)-1-oxopropan-2-yl)-5-methyl-2,4-dioxo-1,2,3,4-tetrahydrothieno[2,3-d]pyrimidine-6-carboxylate] | ≥ 40 nM | 2 µg/mL (≈ 3.73 µM) | 10 µg/mL (≈ 18.7 µM) | 10 µg/mL (≈ 18.7 µM) | 0.08 µg/mL (≈ 0.149 µM) | 0.4 µg/mL (≈ 0.747 µM) | ≥ 50 µg/mL | 2 µg/mL (≈ 3.73 µM) | ≥ 50 µg/mL
5 | CCOC(=O)c1sc2c(c1C)c(=O)n([C@H](C)C(N)=O)c(=O)n2C[C@H](OCCC#N)c1cc(F)ccc1OC [Compound I-26, ethyl 3-((R)-1-amino-1-oxopropan-2-yl)-1-((R)-2-(2-cyanoethoxy)-2-(5-fluoro-2-methoxyphenyl)ethyl)-5-methyl-2,4-dioxo-1,2,3,4-tetrahydrothieno[2,3-d]pyrimidine-6-carboxylate] | 3 to 10 nM | 10 µg/mL (≈ 18.3 µM) | ≥ 50 µg/mL | ≥ 50 µg/mL | 10 µg/mL (≈ 18.3 µM) | ≥ 50 µg/mL | ≥ 50 µg/mL | 2 µg/mL (≈ 3.66 µM) | ≥ 50 µg/mL
6 | CCNC(=O)C(C)(C)n1c(=O)c2c(C)c(C(=O)OCC)sc2n(C[C@H](OCCC#N)c2cc(F)ccc2OC)c1=O [Compound I-29, (R)-ethyl 1-(2-(2-cyanoethoxy)-2-(5-fluoro-2-methoxy-phenyl)ethyl)-3-(1-(ethylamino)-2-methyl-1-oxopropan-2-yl)-5-methyl-2,4-dioxo-1,2,3,4-tetrahydrothieno[2,3-d]pyrimidine-6-carboxylate] | 3 to 10 nM | 2 µg/mL (≈ 3.4 µM) | 0.4 µg/mL (≈ 0.68 µM) | 0.4 µg/mL (≈ 0.68 µM) | 0.08 µg/mL (≈ 0.136 µM) | 2 µg/mL (≈ 3.4 µM) | ≥ 50 µg/mL | 0.08 µg/mL (≈ 0.136 µM) | 10 µg/mL (≈ 17 µM)
7 | CCOC(=O)c1sc2c(c1C)c(=O)n(C(C)(C)C(=O)NC(C)C)c(=O)n2C[C@H](OC[C@@H](C)C#N)c1cc(F)ccc1OC [Compound I-35, ethyl 1-((R)-2-((S)-2-cyanopropoxy)-2-(5-fluoro-2-methoxyphenyl)ethyl)-3-(1-(isopropylamino)-2-methyl-1-oxopropan-2-yl)-5-methyl-2,4-dioxo-1,2,3,4-tetrahydrothieno[2,3-d]pyrimidine-6-carboxylate] | 3 to 10 nM | 0.4 µg/mL (≈ 0.649 µM) | 0.08 µg/mL (≈ 0.13 µM) | 0.4 µg/mL (≈ 0.649 µM) | 0.08 µg/mL (≈ 0.13 µM) | 0.4 µg/mL (≈ 0.649 µM) | ≥ 50 µg/mL | 0.08 µg/mL (≈ 0.13 µM) | 10 µg/mL (≈ 16.2 µM)
